{"source": "patent US5420142A", "about": "“Certain 3-formyl-1, 4-dihydropyridines and their pharmaceutical composition and use” (Bayer Aktiengesellschaft, priority 1991, dated 1995)", "data": [{"test_system": "isolated guinea pig heart auricles", "test": "Substance effects on the contraction amplitude of isolated guinea pig heart auricles", "details": "Cavia porcellus, active compound concentration 10^-4 g/l, read-out: Contractility (% control)", "description": "The cardiac and vascular effects were found on isolated perfused guinea pig hearts. To this end, the hearts of guinea pigs of 250 to 350 g weight are used. The animals are killed by a blow to the head, the thorax is opened, and a metal cannula is tied into the exposed aorta. The heart is separated out of the thorax with the lungs and connected to the perfusion apparatus via an aortic cannula with continuous perfusion. The lungs are separated at the roots of the lung. The perfusion medium used is a Krebs-Henseleit solution (1) (118.5 mmol/l of NaCl, 4.75 mmol/l of KCl, 1.19 mmol/1 of KH2 PO4, 1.19 mmol/l of MgSO4, 25 mmol/l of NaHCO3, 0.013 mmol/l of Na2 EDTA), the CaCl2 content of which is 1.2 mmol/l. 10 mmol/l of glucose are added as an energy-producing substrate. The solution is filtered free from particles before perfusion. The solution is aerated with carbogen (95% O2, 5% CO2) to maintain the pH 7.4. The hearts are perfused with a constant flow (10 ml/min) at 32° C. by means of a peristaltic pump.\nFor the measurement of cardiac function, a liquid-filled latex balloon which is connected to a pressure transducer via a liquid column is inserted into the left ventricle through the left auricle, and the isovolumetric contractions are recorded on a rapid recorder (Opie, L., J. Physiol., 180 (1965), 529-541). The perfusion pressure is recorded by means of a pressure transducer which is connected to the perfusion system upstream of the heart. Under these conditions, a reduction in the perfusion pressure indicates a coronary dilation, and an increase or decrease in the left-ventricular contraction amplitude indicates […] in the heart contractility. The compounds according to the invention are perfused into the perfusion system in suitable dilutions Just upstream of the isolated heart.\nSubstance effects on the contraction amplitude of isolated guinea pig heart auricles at an active compound concentration of 10^-4 g/l.", "units": {"activation at 0.1 µg/mL": "%"}, "values": [{"compound": "CCOC(=O)C1=C(C)NC(C)=C(C=O)C1c1cccc2ncc(-c3ccccc3)cc12", "note": "(stereo not drawn) [Example 1, Ethyl 1,4-dihydro-2,6-dimethyl-3-formyl-4-(3-phenylquinolin-5-yl)-pyridine-5-carboxylate]", "activation at 0.1 µg/mL": 32}, {"compound": "CC1=C(C=O)C(c2cccc3ncc(-c4ccccc4)cc23)C(C(=O)OC(C)C)=C(C)N1", "note": "(stereo not drawn) [Example 3]", "activation at 0.1 µg/mL": 31}, {"compound": "COC(=O)C1=C(C)NC(C)=C(C=O)C1c1cccc2ncc(-c3ccccc3)cc12", "note": "(stereo not drawn) [Example 4]", "activation at 0.1 µg/mL": 41}]}]}
